The source of these data is patent publication US20210371388A1, “Bicyclic Carboxamide with Exocyclic Urea Derivatives as Antivirals for the Treatment of HBV Infection” (Baruch S. Blumberg Institute, priority 2020, published 2021).

This test concerns HBV replication in AML12HBV10 cells. Briefly: Antiviral efficacy: HBV DNA in AML12HBV10 cell lysates by dot-blot hybridization. Type of test: cell-based. Conditions: Hepatitis B virus, AML12HBV10, 48 h, read-out: Antiviral activity (EC50), AML12HBV10 cells, 48 hours treatment, concentration that reduces the amount of HBV DNA by 50%. The procedure: The antiviral efficacy of the compounds of the disclosure, as presented in Table 2, were determined in AML12HBV10 cells. AML12HBV10 is an immortalized murine hepatocyte (AML12)-derived stable cell line that supports robust HBV replication in a tetracycline inducible manner (Xu et al.). The cells were seeded into 96 well plates at a density of 2×10^4 cells per well and cultured in DMEM/F12 media with 10% fetal bovine serum in the absence of tetracycline to allow pgRNA transcription and HBV DNA replication. One day after seeding, cells were left untreated or treated with a serial dilution of testing compounds, ranging from 50 μM to 0.39 μM, for 48 hours. Cells were then lysed by adding into each well of 100 μl lysis buffer containing 10 mM Tris-HCl (pH 7.6), 1 mM EDTA, 100 mM NaCl and 1% NP-40 and incubated at 37° C. for 30 minutes. Half amount (50 μλ) of cell lysate from each well was combined with equal volume of denaturing solution containing 0.5N NaOH and 1.5M NaCl. After 5 minute incubation, 100 μl of neutralization solution (1M Tris-HCl, pH 7.4, 1.5M NaCl) was added into each well. The denatured cell lysates (totally 200 μl) were applied onto Nylon membrane using 96-well dot-blot manifold (Biorad). HBV DNA in the cell lysates were determined by dot-blot hybridization with alpha-^32P-UTP-labelled riboprobe specific for HBV minus strand DNA. The antiviral efficacy of a compound of the disclosure was expressed as the concentration that reduces the amount of HBV DNA by 50% (EC50).

A value given as a limit tells only on which side of the number the result lay.

`O=C1CCN(C(=O)Nc2ccc(F)c(Cl)c2)c2ccccc21` [Entry 1]: the EC50 was determined as 1.32 µM.
Regarding `O=C1CCN(C(=O)Nc2ccc(F)c(Cl)c2)[C@H]2CCCC[C@H]12` [Entry 3], the EC50 came out at 0.42 µM.
For `O=C(Nc1ccc(F)c(Cl)c1)N1CCc2ccccc21` [Entry 4] the value was 0.36 µM; for `O=C(Nc1ccc(F)c(Cl)c1)N1CCOc2ccccc21` [Entry 5], 0.52 µM; for `O=C(Nc1ccc(F)c(Cl)c1)N1CCCCc2ccccc21` [Entry 6], 12.3 µM.
Consider `O=C(Nc1ccc(F)c(Cl)c1)N1CCCc2ccccc21` [Entry 8], for which the EC50 amounted to 1.55 µM.
For `O=C(Nc1ccc(F)c(Cl)c1)N1CCNc2ccccc21` [Entry 9] the value was 0.5 µM; for `O=C1CCCN(C(=O)Nc2ccc(F)c(Cl)c2)c2ccccc21` [Entry 10], not below 10 µM; for `Cc1ccc2c(c1)CCN2C(=O)Nc1ccc(F)c(Cl)c1` [Entry 11], 5.26 µM.
For `O=C(Nc1ccc(F)c(Cl)c1)N1CCc2cc(F)c(F)cc21` [Entry 12] the value was 2.07 µM.
For `O=C1CCN(C(=O)Nc2cc(F)c(F)c(F)c2)[C@H]2CCCC[C@@H]12` [Entry 13], the EC50 is 2.41 µM.
As for `O=C1CCN(C(=O)Nc2cc(F)c(F)c(F)c2)[C@H]2CCCC[C@H]12` [Entry 14], the EC50 turned out to be 3.46 µM.
On to `CC1(O)CCN(C(=O)Nc2ccc(F)c(Cl)c2)C2CCCCC21` (stereo not drawn) [Entry 15], for which the EC50 is 6.4 µM.
For `O=C(Nc1cc(F)c(F)c(F)c1)N1CCC(O)C2CCCCC21` (stereo not drawn) [Entry 19] the value was not below 10 µM.
For `O=C1CCN(C(=O)Nc2cc(F)c(F)c(Cl)c2)C2CCCCC12` (stereo not drawn) [Entry 20] the value was 2.4 µM.
For `O=C(Nc1cc(F)c(F)c(F)c1)N1CCNc2ccccc21` [Entry 21] the value was 0.63 µM; for `O=C1CN(C(=O)Nc2cc(F)c(F)c(F)c2)c2ccccc2N1` [Entry 22], not below 10 µM; for `O=C1CN(C(=O)Nc2ccc(F)c(Cl)c2)c2ccccc2N1` [Entry 23], not below 10 µM.
In the case of `O=C(Nc1ccc(F)c(Cl)c1)N1CCN(CCCCF)c2ccccc21` [Entry 24], the EC50 was not below 10 µM.
For `O=C(Nc1cc(F)c(F)c(F)c1)N1CCN(CC(F)(F)F)c2ccccc21` [Entry 25] the value was not below 10 µM; for `O=C(Nc1cc(F)c(F)c(F)c1)N1CCN(CCC(F)(F)F)c2ccccc21` [Entry 26], not below 10 µM.
For `O=C(Nc1cc(F)c(F)c(F)c1)N1CCN(C(=O)c2ccccn2)c2ccccc21` [Entry 27] the value was not below 10 µM; for `O=C(Nc1cc(F)c(F)c(F)c1)N1CCN(C(=O)c2ccc(C(F)(F)F)cc2)c2ccccc21` [Entry 28], not below 10 µM.
For `CC(=O)N1CCN(C(=O)Nc2cc(F)c(F)c(F)c2)c2ccccc21` [Entry 29] the value was not below 10 µM; for `CC(C)(C)C(=O)N1CCN(C(=O)Nc2cc(F)c(F)c(F)c2)c2ccccc21` [Entry 30], not below 10 µM; for `CC(C)C(=O)N1CCN(C(=O)Nc2cc(F)c(F)c(F)c2)c2ccccc21` [Entry 31], 4.71 µM.
For the molecule `O=C(Nc1cc(F)c(F)c(F)c1)N1CCN(C(=O)c2ccccc2)c2ccccc21` [Entry 32], the EC50 was not below 10 µM.
For `O=C(Nc1cc(F)c(F)c(Cl)c1)N1CCNc2ccccc21` [Entry 33] the value was 0.93 µM; for `O=C(Nc1cc(F)c(F)c(F)c1)N1CCN(S(=O)(=O)c2ccccc2)c2ccccc21` [Entry 34], not below 10 µM; for `CCCCOC(=O)N1CCN(C(=O)Nc2cc(F)c(F)c(F)c2)c2ccccc21` [Entry 35], not below 10 µM.
For `CC(C)COC(=O)N1CCN(C(=O)Nc2cc(F)c(F)c(F)c2)c2ccccc21` [Entry 36] the value was not below 10 µM; for `O=C(Nc1cc(F)c(F)c(F)c1)N1CCN(C(=O)OCc2ccccc2)c2ccccc21` [Entry 37], not below 10 µM.
As to `O=C(Nc1cc(F)c(F)c(F)c1)N1CCNC2CCCCC21` (stereo not drawn) [Entry 38], the EC50 is not below 10 µM.
For `O=C(Nc1ccc(F)c(Cl)c1)N1CCNC2CCCCC21` (stereo not drawn) [Entry 40] the value was not below 10 µM.
For `O=C(Nc1ccc(F)c(Cl)c1)N1CCOC2CCCCC21` (stereo not drawn) [Entry 41] the value was not below 10 µM; for `O=C(Nc1ccc(F)c(Cl)c1)N1CCN(C(=O)Nc2ccc(F)c(Cl)c2)[C@H]2CCCC[C@@H]21` [Entry 42], not below 10 µM; for `CC(C)(C)OC(=O)N1CCN(C(=O)Nc2ccc(F)c(Cl)c2)[C@H]2CCCC[C@@H]21` [Entry 43], not below 10 µM.
For `CC(C)(C)OC(=O)N1CCN(C(=O)Nc2ccc(F)c(Cl)c2)[C@@H]2CCCC[C@@H]21` [Entry 44] the value was not below 10 µM; for `O=C(Nc1ccc(F)c(Cl)c1)N1CCCC2CCCCC21` (stereo not drawn) [Entry 46], not below 10 µM.
Regarding `O=C(Nc1ccc(F)c(Cl)c1)N1CCN[C@H]2CCCC[C@H]21` [Entry 47], the EC50 was not below 10 µM.
For `O=C(Nc1ccc(F)c(Cl)c1)N1CCN(C(=O)Nc2ccc(F)c(Cl)c2)c2ccccc21` [Entry 48] the value was 0.75 µM.
For `O=C(Nc1ccc(F)c(Cl)c1)N1CC2(CCCC2)Nc2ccccc21` [Entry 49] the value was not below 10 µM; for `CC1(C)CN(C(=O)Nc2ccc(F)c(Cl)c2)c2ccccc2N1` [Entry 50], not below 10 µM; for `CC1CN(C(=O)Nc2ccc(F)c(Cl)c2)c2ccccc2N1` (stereo not drawn) [Entry 51], not below 10 µM.
For `O=C(Nc1ccc(F)c(Cl)c1)N1CC(c2ccccc2)Nc2ccccc21` (stereo not drawn) [Entry 52] the value was not below 10 µM; for `O=C(Nc1ccc(F)c(Cl)c1)N1CCS(=O)(=O)c2ccccc21` [Entry 53], not below 10 µM.
For `CC(C)(C)NC(=O)N1CCN(C(=O)Nc2ccc(F)c(Cl)c2)c2ccccc21` [Entry 54], the EC50 is not below 10 µM.
For the molecule `O=C1CN(C(=O)Nc2ccc(F)c(Cl)c2)C2CCCCC2N1` (stereo not drawn) [Entry 56], the EC50 was not below 10 µM.
For `O=C(Nc1cccc(Cl)c1)N1CCN(C(=O)Nc2ccc(F)c(Cl)c2)c2ccccc21` [Entry 57] the value was 0.65 µM; for `O=C(Nc1cc(Cl)ccc1F)N1CCNc2ccccc21` [Entry 58], 0.77 µM; for `O=C(Nc1cc(F)c(F)c(F)c1)N1CCN(C(=O)Nc2cc(F)c(F)c(F)c2)c2ccccc21` [Entry 59], 1.12 µM.
For `NC(=O)C1CN(C(=O)Nc2ccc(F)c(Cl)c2)c2ccccc2N1` (stereo not drawn) [Entry 62] the value was not below 10 µM; for `O=C(Nc1ccc(F)c(Cl)c1)N1c2ccccc2NCC1c1ccccc1` (stereo not drawn) [Entry 63], 0.78 µM.
As for `CC1CNc2ccccc2N1C(=O)Nc1ccc(F)c(Cl)c1` (stereo not drawn) [Entry 64], the EC50 came out at 4.38 µM.
`CC1CN(C(=O)Nc2ccc(F)c(Cl)c2)c2ccccc2N1C(=O)Nc1ccc(F)c(Cl)c1` (stereo not drawn) [Entry 65]: the EC50 is 1.3 µM.
With `CC(C)C1CN(C(=O)Nc2ccc(F)c(Cl)c2)c2ccccc2N1C(=O)NCc1ccc(F)c(F)c1` (stereo not drawn) [Entry 66], the EC50 is 1.66 µM.
For `O=C(Nc1ccc(F)c(Cl)c1)N1CC(CN2CCOCC2)N(C(=O)Nc2ccc(F)c(Cl)c2)c2ccccc21` (stereo not drawn) [Entry 67] the value was 2.03 µM; for `O=C(Nc1ccc(F)c(Cl)c1)N1CC(CN2CCC(O)CC2)N(C(=O)Nc2ccc(F)c(Cl)c2)c2ccccc21` (stereo not drawn) [Entry 68], not below 10 µM.
As for `O=C(Nc1ccc(F)c(Cl)c1)N1CC(CN2CCC(F)(F)C2)N(C(=O)Nc2ccc(F)c(Cl)c2)c2ccccc21` (stereo not drawn) [Entry 69], the EC50 is 0.65 µM.
For `CN1CCN(CC2CN(C(=O)Nc3ccc(F)c(Cl)c3)c3ccccc3N2C(=O)Nc2ccc(F)c(Cl)c2)CC1` (stereo not drawn) [Entry 70] the value was not below 10 µM; for `O=C(Nc1ccc(F)c(Cl)c1)N1CC(CN2CCCC(F)(F)C2)N(C(=O)Nc2ccc(F)c(Cl)c2)c2ccccc21` (stereo not drawn) [Entry 72], 1.23 µM; for `O=C1CC(c2ccccc2)N(C(=O)Nc2ccc(F)c(Cl)c2)c2ccccc21` (stereo not drawn) [Entry 73], 2.89 µM.
For `O=C(Nc1ccc(F)c(Cl)c1)N1CC(CN2CCC(F)(F)C2)Nc2ccccc21` (stereo not drawn) [Entry 76] the value was 5.09 µM; for `O=C(Nc1ccc(F)c(Cl)c1)N1c2ccccc2NCC1CN1CCC(F)(F)CC1` (stereo not drawn) [Entry 77], 0.28 µM; for `O=C(Nc1ccc(F)c(Cl)c1)N1CC(CN2CCC(F)(F)CC2)Nc2ccccc21` (stereo not drawn) [Entry 78], 4.32 µM.
For `O=C(Nc1ccc(F)c(Cl)c1)N1c2ccccc2NCC1CN1CCC(F)(F)C1` (stereo not drawn) [Entry 79] the value was 1.7 µM; for `CC(C)C1CNc2ccccc2N1C(=O)Nc1ccc(F)c(Cl)c1` (stereo not drawn) [Entry 81], 3.5 µM; for `O=C(Nc1ccc(F)c(Cl)c1)N1CCNc2cc(F)c(F)cc21` [Entry 82], 0.61 µM.
Regarding `O=C(Nc1ccc(F)c(Cl)c1)N1CCN(C(=O)Nc2ccc(F)c(Cl)c2)c2cc(F)c(F)cc21` [Entry 83], the EC50 was 1.18 µM.
For `O=C1CC(c2ccc(F)cc2)N(C(=O)Nc2ccc(F)c(Cl)c2)c2ccccc21` (stereo not drawn) [Entry 84] the value was 2.37 µM; for `O=C1CCN(C(=O)Nc2ccc(F)c(Cl)c2)c2ccc(Br)cc21` [Entry 85], not below 10 µM.
`O=C1CCN(C(=O)Nc2ccc(F)c(Cl)c2)c2ccc(Cl)cc21` [Entry 86]: the EC50 amounted to 4.83 µM.
